The text below walks through data of patent publication US8765730B2 (Hoffmann-La Roche Inc, priority 2010, dated 2014).

SMILES strings stand for the structures.

The target in this experiment is T1, human GPBAR1 receptor (Homo sapiens, UniProt Q8TDU6).
T1 construct: expressed in transfected cells
T1 sequence (Q8TDU6 1-330): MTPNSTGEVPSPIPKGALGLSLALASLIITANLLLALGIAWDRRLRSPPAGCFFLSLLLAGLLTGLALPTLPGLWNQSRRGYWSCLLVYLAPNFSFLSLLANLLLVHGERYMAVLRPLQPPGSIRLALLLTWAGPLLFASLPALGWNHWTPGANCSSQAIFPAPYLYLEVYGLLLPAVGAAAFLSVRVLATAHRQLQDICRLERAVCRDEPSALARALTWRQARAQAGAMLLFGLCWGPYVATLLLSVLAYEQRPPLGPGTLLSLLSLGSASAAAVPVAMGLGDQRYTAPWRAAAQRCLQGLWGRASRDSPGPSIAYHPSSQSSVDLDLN
Nature of the experiment: functional cAMP assay in CHO-dhfr(minus) cells expressing human GPBAR1 receptors. Type of experiment: cell-based. The following applies: human EC50, functional cAMP assay, 30 min at 30° C. The gist of the method:
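Agonist cAMP read-out: stable GPBAR1 CHO-dhfr− clone, 30 min compound exposure at 30° C following 30 min IBMX (1 mM) preincubation in Krebs Ringer bicarbonate. Time-resolved energy-transfer detection gives EC50; parental CHO cells serve as counter-screen.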
In turn, `Cc1ccccc1C(C/C(=N\O)c1ccc(=O)n(C)c1)c1ccc(Oc2ccc(C(=O)O)c(F)c2)cc1F` (centres unmarked) [Example 222, 2-Fluoro-4-{3-fluoro-4-[3-[(E)-hydroxyimino]-3-(1-methyl-6-oxo-1,6-dihydro-pyridin-3-yl)-1-o-tolyl-propyl]-phenoxy}-benzoic acid] yielded an EC50 of 3590 nM.
Next, `Cc1ccccc1C(C/C(=N\O)c1ccc(=O)n(C)c1)c1ccc(C(=O)NCC(=O)O)cc1` (centres unmarked) [Example 215, {4-[3-[(E)-Hydroxyimino]-3-(1-methyl-6-oxo-1,6-dihydro-pyridin-3-yl)-1-o-tolyl-propyl]-benzoylamino}-acetic acid]: 810 nM.
Turning to `CCOc1ccc([C@@H](C/C(=N\O)c2ccnc(C)c2)c2ccccc2C)cc1` [Example 364, (R)-3-(4-Ethoxy-phenyl)-1-(2-methyl-pyridin-4-yl)-3-o-tolyl-propan-1-one oxime], the concentration for a half-maximal effect (EC50) came out at 4 nM.
To `Cc1ccccc1C(C/C(=N\O)c1ccc(=O)n(C)c1)c1ccc(C(=O)NC(C)(C)CO)cc1` (centres unmarked) [Example 303, (E)-N-(1-Hydroxy-2-methylpropan-2-yl)-4-(3-(hydroxyimino)-3-(1-methyl-6-oxo-1,6-dihydropyridin-3-yl)-1-o-tolylpropyl)benzamide] belongs 816 nM; to `Cn1cc(/C(CC(c2ccc(-c3ccc(C(=O)O)c(F)c3)cc2)c2ccc(Cl)cc2Cl)=N/O)ccc1=O` (centres unmarked) [Example 473, 4′-[1-(2,4-Dichloro-phenyl)-3-[(E)-hydroxyimino]-3-(1-methyl-6-oxo-1,6-dihydro-pyridin-3-yl)-propyl]-3-fluoro-biphenyl-4-carboxylic acid], 29 nM; to `Cc1ccccc1[C@@H](C/C(=N\O)c1cnc(=O)n(C)c1)c1ccc(S(C)(=O)=O)cc1` [Example 502, (S,E)-5-(1-(Hydroxyimino)-3-(4-(methylsulfonyl)phenyl)-3-o-tolylpropyl)-1-methyl-pyrimidin-2(1H)-one], 477 nM.
In turn, `Cn1cc(/C(CC(c2ccc(Br)cc2)c2ccccc2Cl)=N/O)ccc1=O` (centres unmarked) [Example 203, 5-{3-(4-Bromo-phenyl)-3-(2-chloro-phenyl)-1-[(E)-hydroxyimino]-propyl}-1-methyl-1H-pyridin-2-one] displayed an EC50 of 12 nM.
For the compound `Cc1ccccc1C(C/C(=N\O)c1ccc(=O)n(C)c1)c1ccc(C(=O)N[C@@H](CO)C(C)C)cc1` (single isomer, unassigned) [Example 306], a half-maximal response (EC50) required 511 nM. This EC50 lies about 43-fold higher than the previous one.
To `CNC(=O)c1ccc([C@@H](C/C(=N\O)c2ccnc(C)c2)c2ccccc2C)cc1` [Example 278, 4-[(R)-3-[(E)-Hydroxyimino]-3-(2-methyl-pyridin-4-yl)-1-o-tolyl-propyl]-N-methyl-benzamide] belongs 15 nM.
To `Cn1cc(/C(C[C@@H](c2ccc(-c3ccc(C(=O)O)s3)cc2)c2ccc(Cl)cc2F)=N/O)ccc1=O` [Example 470, 5-{4-[(+)-1-(4-Chloro-2-fluoro-phenyl)-3-[(E)-hydroxyimino]-3-(1-methyl-6-oxo-1,6-dihydro-pyridin-3-yl)-propyl]-phenyl}-thiophene-2-carboxylic acid] belongs 61 nM; to `Cc1ccccc1C(C/C(=N\O)c1ccc(=O)n(C)c1)c1ccc(OCC(=O)O)cc1F` (centres unmarked) [Example 221, {3-Fluoro-4-[3-[(E)-hydroxyimino]-3-(1-methyl-6-oxo-1,6-dihydro-pyridin-3-yl)-1-o-tolyl-propyl]-phenoxy}-acetic acid], 4080 nM; to `CCCC(C/C(=N\O)c1ccc(=O)n(C)c1)c1ccc(Br)cc1F` (centres unmarked) [Example 191, 5-{3-(4-Bromo-2-fluoro-phenyl)-1-[(E)-hydroxyimino]-hexyl}-1-methyl-1H-pyridin-2-one], 375 nM.
The compound `Cn1cc(/C(CC(c2ccc(C(=O)NCCS(C)(=O)=O)cc2)c2ccc(Cl)cc2F)=N/O)ccc1=O` (centres unmarked) [Example 313, 4-[1-(4-Chloro-2-fluoro-phenyl)-3-[(E)-hydroxyimino]-3-(1-methyl-6-oxo-1,6-dihydro-pyridin-3-yl)-propyl]-N-(2-methanesulfonyl-ethyl)-benzamide] returned an EC50 of 266 nM.
To `Cc1cc(F)ccc1[C@H](C/C(=N\O)c1ccc(=O)n(C)c1)c1ccc(Br)cc1` (single isomer, unassigned) [Example 404, (−)-5-{3-(4-Bromo-phenyl)-3-(4-fluoro-2-methyl-phenyl)-1-[(E)-hydroxyimino]-propyl}-1-methyl-1H-pyridin-2-one] belongs 5 nM; to `Cc1cc(/C(CC(c2ccc(-c3ccc(C(=O)O)c(F)c3)cc2)c2ccccc2C(F)(F)F)=N/O)ccn1` (centres unmarked) [Example 135, 3-Fluoro-4′-[3-[(E)-hydroxyimino]-3-(2-methyl-pyridin-4-yl)-1-(2-trifluoromethyl-phenyl)-propyl]-biphenyl-4-carboxylic acid], 29 nM.
Next, `Cc1cc(/C(CC(c2ccc(C(=O)N3CCOCC3)cc2)c2ccc(F)cc2F)=N/O)ccn1` (centres unmarked) [Example 438, 3-(2,4-Difluoro-phenyl)-1-(2-methyl-pyridin-4-yl)-3-[4-(morpholine-4-carbonyl)-phenyl]-propan-1-one oxime]: 132 nM; `Cc1ccccc1[C@H](C/C(Cc1ccncc1)=N\O)c1ccc(-c2ccc(C(=O)O)cc2)cc1` [Example 298, 4′-{(R)-3-[(E)-Hydroxyimino]-4-pyridin-4-yl-1-o-tolyl-butyl}-biphenyl-4-carboxylic acid]: 411 nM.
Next, `Cc1cc(/C(CC(c2ccc(-c3ccc(C(=O)O)c(F)c3)cc2)c2ccc(Cl)cc2F)=N/O)ccn1` (centres unmarked) [Example 447, 4′-[1-(4-Chloro-2-fluoro-phenyl)-3-[(E)-hydroxyimino]-3-(2-methyl-pyridin-4-yl)-propyl]-3-fluoro-biphenyl-4-carboxylic acid]: 12 nM.
`Cc1cc(/C(C[C@H](c2ccc(-c3ccc(C(=O)NCC(=O)O)cc3)cc2)c2ccccc2C)=N/O)ccn1` [Example 96, ({4′-[(R)-3-[(E)-Hydroxyimino]-3-(2-methyl-pyridin-4-yl)-1-o-tolyl-propyl]-biphenyl-4-carbonyl}-amino)-acetic acid]: the EC50 worked out at 3 nM.
Next, `Cc1cc(/C(C[C@H](c2ccc(-c3ccc(C(=O)O)cc3)cc2)c2ccc(Cl)cc2C)=N/O)ccn1` [Example 297, 4′-[(R)-1-(4-Chloro-2-methyl-phenyl)-3-[(E)-hydroxyimino]-3-(2-methyl-pyridin-4-yl)-propyl]-biphenyl-4-carboxylic acid]: 13 nM; `Cc1ccccc1C(CC(=NO)c1cc(Cl)ncc1F)c1ccc(Br)cc1` (racemic) [Example 127, 3-(4-Bromo-phenyl)-1-(2-chloro-5-fluoro-pyridin-4-yl)-3-o-tolyl-propan-1-one oxime]: 46 nM; `Cc1ccccc1C(C/C(=N\O)c1ccn(C)c(=O)c1)c1ccc(Br)cc1` (centres unmarked) [Example 110, 4-{3-(4-Bromo-phenyl)-1-[(E)-hydroxyimino]-3-o-tolyl-propyl}-1-methyl-1H-pyridin-2-one]: 116 nM.
To `Cn1cc(/C(CC(c2ccc(Br)cc2)C2CCCC2)=N/O)ccc1=O` (centres unmarked) [Example 172, 5-{3-(4-Bromo-phenyl)-3-cyclopentyl-1-[(E)-hydroxyimino]-propyl}-1-methyl-1H-pyridin-2-one] belongs 56 nM; to `Cc1cc(F)ccc1C(C/C(=N\O)c1ccc(=O)n(C)c1)c1ccc(-c2ccc(S(N)(=O)=O)cc2)cc1` (centres unmarked) [Example 401, 4′-[1-(4-Fluoro-2-methyl-phenyl)-3-[(E)-hydroxyimino]-3-(1-methyl-6-oxo-1,6-dihydro-pyridin-3-yl)-propyl]-biphenyl-4-sulfonic acid amide], 5 nM; to `Cc1cc(/C(CC(c2ccc(C(=O)N3CCN(S(C)(=O)=O)CC3)cc2)c2ccc(F)cc2F)=N/O)ccn1` (centres unmarked) [Example 439, 3-(2,4-Difluoro-phenyl)-3-[4-(4-methanesulfonyl-piperazine-1-carbonyl)-phenyl]-1-(2-methyl-pyridin-4-yl)-propan-1-one oxime], 81 nM.
To `Cn1cc(/C(CC(c2ccc(-c3ccc(CC(=O)O)cc3)cc2)c2ccc(Cl)cc2F)=N/O)ccc1=O` (single isomer, unassigned) [Example 461, {4′-[(−)-1-(4-Chloro-2-fluoro-phenyl)-3-[(E)-hydroxyimino]-3-(1-methyl-6-oxo-1,6-dihydro-pyridin-3-yl)-propyl]-biphenyl-4-yl}-acetic acid] belongs 156 nM; to `Cc1cc(Cl)ccc1C(C/C(=N\O)c1ccc(=O)n(C)c1)c1ccc(C(=O)NC[C@@H](O)CO)cc1` (stereo partly drawn) [Example 335, 4-((E)-1-(4-Chloro-2-methylphenyl)-3-(hydroxyimino)-3-(1-methyl-6-oxo-1,6-dihydropyridin-3-yl)propyl)-N—((R)-2,3-dihydroxypropyl)benzamide], 113 nM; to `CC(=O)N1CCC(c2ccc([C@@H](C/C(=N\O)c3ccc(=O)n(C)c3)c3ccccc3C)cc2)CC1` [Example 508, (R,E)-5-(3-(4-(1-Acetylpiperidin-4-yl)phenyl)-1-(hydroxyimino)-3-o-tolylpropyl)-1-methylpyridin-2(1H)-one], 405 nM.
`CN(C)c1ccc(C(CC(=NO)c2ccncc2)c2c[nH]c3ccccc23)cc1` (racemic) [Example 62, 3-(4-Dimethylamino-phenyl)-3-(1H-indol-3-yl)-1-pyridin-4-yl-propan-1-one oxime]: the concentration for a half-maximal effect (EC50) is 2710 nM.
